Test results as given in patent US6103875A, “Antifungal compounds from pseudomonas viridiflava” (Pharmagenesis, Inc., priority 1997, dated 2000).
Converted amounts (≈) assume the structure as drawn.

Tests used:
[1] = tested on: Candida parasilopsis 90018; assay: Minimal inhibitory concentration test (modified NCCLS protocol); type: cell-based, Candida parasilopsis (ATCC 90018)
Experimental: (§1) All fungi used for test purposes for sensitivity to the ecomycins were obtained from the ATCC or from the mycological collection at Montana State University, Bozeman, Mont.
(§2) Samples of the semi-purified ecomycin preparation, purified Ecomycin A, and Ecomycin B were tested, along with a known antifungal compound, Amphotericin B, in a minimal inhibitory concentration test (MIC) modification of the NCCLS protocol (Galgiani, et al., 1995).

[2] = tested on: Cryptococcus neoformans 90013; assay: as above; type: cell-based, Cryptococcus neoformans (ATCC 90013)
Experimental: as §1, §2

Candida glabrata 90030 = assay: as above; type: cell-based, Candida glabrata (ATCC 90030); settings: Nakaseomyces glabratus
Experimental: as §1, §2

Candida albicans = assay: Synergy with amphotericin B, inhibition of growth in 96-well plates; type: cell-based
Experimental: Briefly, in turning now to the illustrative experiments described in Example 11, varying amounts of amphotericin B were added to varying concentrations of an exemplary composition containing the antifungal lipopeptides of the present invention, extract EB-273, followed by a determination of the resulting inhibition of growth of Candida albicans.
Experiments were conducted with the semi-purified preparation of ecomycins (extract EB-273), added individually or in combination with sub-fungicidaldoses of Amphotericin B, to 96-well plates inoculated with C. albicans.

Candida albicans 90028 = assay: Minimal inhibitory concentration test (modified NCCLS protocol); type: cell-based, Candida albicans (ATCC 90028)
Experimental: as §1, §2

[3] = Thomas, 1986; cited from earlier work
[4] = cited from earlier work
[5] = tested on: Cryptococcus neoformans 90012; assay: Minimal inhibitory concentration test (modified NCCLS protocol); type: cell-based, Cryptococcus neoformans (ATCC 90012)
Experimental: as §1, §2

Candida albicans 90029 = assay: as above; type: cell-based, Candida albicans (ATCC 90029)
Experimental: as §1, §2

Candida kefir 46764 = assay: as above; type: cell-based, Candida kefir (ATCC 46764)
Experimental: as §1, §2

## C[C@@H]1[C@H](O)[C@@H](C)/C=C/C=C/C=C/C=C/C=C/C=C/C=C/[C@H](O[C@@H]2O[C@H](C)[C@@H](O)[C@H](N)[C@@H]2O)C[C@@H]2O[C@](O)(C[C@@H](O)C[C@@H](O)[C@H](O)CC[C@@H](O)C[C@@H](O)CC(=O)O[C@H]1C)C[C@H](O)[C@H]2C(=O)O [Amphotericin B]
[1]
  MIC: 0.1 µg/mL (≈ 0.108 µM)
[2]
  MIC: 0.3 µg/mL (≈ 0.325 µM)
Candida glabrata 90030
  MIC: 0.6 µg/mL (≈ 0.649 µM)
Candida albicans; Candida albicans, read-out: inhibitory effect
  inhibition at 0.035 µg/mL: ~30%
Candida albicans; Candida albicans, amphotericin B alone, 70 ng/ml, read-out: inhibitory effect
  inhibition at 0.07 µg/mL: ~25%
Candida albicans; Candida albicans, amphotericin B alone, 105 ng/ml, read-out: inhibitory effect
  inhibition at 0.105 µg/mL: ~43%
Candida albicans; Candida albicans, amphotericin B alone, 140 ng/ml, read-out: inhibitory effect
  inhibition at 0.14 µg/mL: ~55%
Candida albicans; Candida albicans, amphotericin B alone, 175 ng/ml, read-out: inhibitory effect
  inhibition at 0.175 µg/mL: ~84%
Candida albicans; amphotericin B 70 ng/ml + extract EB-273 about 8-12 μg/ml or greater vs. amphotericin B alone
  enhancement of inhibitory effect: nearly four-fold
Candida albicans; amphotericin B 70 ng/ml + extract EB-273 at about 8-12 μg/ml or greater
  inhibitory effect: ~100%
Candida albicans; amphotericin B 105 ng/ml + extract EB-273 vs. amphotericin B alone
  enhancement of activity: approximate two-fold enhancement
Candida albicans; amphotericin B 140 ng/ml + extract EB-273 vs. amphotericin B alone
  enhancement of activity: approximate two-fold enhancement
Candida albicans; amphotericin B + ecomycin extract EB-273, range of dosage responses
  interaction between amphotericin B and ecomycin extract (isobolographic analyses): synergistic rather than additive
Candida albicans; amphotericin B alone, 210 ng/ml
  inhibition of C. albicans: nearly complete inhibition
Candida albicans; in combination with the lipopeptides composition
  reduction of amount of amphotericin B required to effectively suppress growth of Candida: at least 30%
Candida albicans; with EB-273, [210 ng/ml-175 ng/ml]/210×100
  reduction of amphotericin B concentration required for substantially complete inhibition: 16%
Candida albicans; with a suitable concentration of EB-273, fourth of four
  reduction of amphotericin B concentration required for substantially complete inhibition: 66%
Candida albicans; with a suitable concentration of EB-273, second of four
  reduction of amphotericin B concentration required for substantially complete inhibition: 33%
Candida albicans; with a suitable concentration of EB-273, third of four
  reduction of amphotericin B concentration required for substantially complete inhibition: 50%
Candida albicans 90028
  MIC: 0.6 µg/mL (≈ 0.649 µM)
[3]
  toxicity, undesirable side-effects: leucopenia, thrombocytopenia, renal tubular acidosis, hypokalemia, hypomagnesemia, headaches, nausea, and anemia
[4]
  oral absorption: not adsorbed orally
[5]
  MIC: 0.1 µg/mL (≈ 0.108 µM)
Candida albicans 90029
  MIC: 0.6 µg/mL (≈ 0.649 µM)
Candida kefir 46764
  MIC: 0.1 µg/mL (≈ 0.108 µM)
